The text below walks through data of patent US20210213081A1, “COMPOSITION FOR PREVENTING, AMELIOREATING, OR TREATING STRESS OR DEPRESSION COMPRISING MEDICINAL HERB EXTRACT AS EFFECTIVE INGREDIENT” (KOREA INSTITUTE OF ORIENTAL MEDICINE, priority 2016, published 2021).

For assay [1], the system named is C57BL/6 mouse. Kind of assay: Sucrose preference test (SPT) in immobility stress model. It counts as in vivo. The settings on record: immobility stress 22 days, 20 mg/kg oral daily, FIG. 4. The source says:
As a test animal, 7-week old male C57BL/6 mouse was used after obtaining it from Samtako Bio Korea. The test animals were acclimated for 7 days in the test animal research center, which is a specific pathogen-free facility of Korea Institute of Oriental Medicine. They were divided into the followings 6 groups in total: normal group not exposed to any stress (Control, n=16), stress control group applied with the stress only (Vehicle, n=16), positive control group applied with the stress and commercially available anti-depressant (Fluoxetine, n=16), and test groups applied with the stress and extract of Hibiscus syriacus root (100, 200, or 400 mg/kg, n=16). The test methods were reviewed by Test animal ethics committee of Korea Institute of Oriental Medicine (approval number: 15-102), and as for the breeding and maintenance of the test animals, the animals were placed in an IVC (individually ventilated cage) (5 animals per cage), which has been constantly maintained at temperature of 23±1° C., humidity of 50±10% or so, and light/dark period of 12 hours, based on the regulations for management and use of animals by the Test Animal Research Center of Korea Institute of Oriental Medicine. […]
The sucrose preference test was carried out on Day 1 of the test and after completion of the test. […] The intake preference was calculated as follows.

Assay [2] deals with C57BL/6 mouse. Kind of assay: Forced swimming test (FST) in immobility stress model. It counts as in vivo. The conditions noted are these: immobility stress 22 days, 20 mg/kg oral daily, FIG. 5. The text has this: (§1) As a test animal, 7-week old male C57BL/6 mouse was used after obtaining it from Samtako Bio Korea. The test animals were acclimated for 7 days in the test animal research center, which is a specific pathogen-free facility of Korea Institute of Oriental Medicine. They were divided into the followings 6 groups in total: normal group not exposed to any stress (Control, n=16), stress control group applied with the stress only (Vehicle, n=16), positive control group applied with the stress and commercially available anti-depressant (Fluoxetine, n=16), and test groups applied with the stress and extract of Hibiscus syriacus root (100, 200, or 400 mg/kg, n=16). […]
To measure the anti-depression effect of an extract of Hibiscus syriacus root, the forced swimming test was carried out, after the completion of the immobility stress test, by using the method of Porsolt, et. al. ([…]). […] Of total 6 minutes, the measurement was not carried out for initial 2 minutes as an acclimation period, while the immobile time of the test animal was measured for the last 4 minutes. […]

Assay [3] has as its system C57BL/6 mouse. Kind of assay: Tail suspension test (TST) in immobility stress model. The format is in vivo. The conditions noted are these: immobility stress 22 days, 20 mg/kg oral daily, FIG. 6.
From the text: as §1
The method by Can and others was used for the tail suspension test. […] Of total 6 minutes, the measurement was not carried out for initial 2 minutes as an acclimation period, while the immobile time of the test animal was measured for the last 4 minutes. […]

Assay [4] concerns cortisol. Kind of assay: Blood cortisol measurement after immobility stress (competitive enzyme immunoassay). The format is in vivo. The settings on record: mouse blood serum, immobility stress 22 days, 20 mg/kg oral daily, FIG. 7.
From the text: as §1
Upon the completion of the test, the test animal was anesthetized, and blood was collected from the heart and centrifuged (1,000×g, 15 minutes) to obtain blood serum. […] Then, the absorbance at 405 nm was measured by using Micro Spectrophotometer (Molecular Device, Sunnyvale, Calif., USA).

Assay [5] has as its system serotonin. Kind of assay: Blood serotonin measurement after immobility stress (competitive enzyme immunoassay). The settings on record: mouse blood serum, immobility stress 22 days, 20 mg/kg oral daily, FIG. 8. The format is in vivo.
From the text: as §1
Upon the completion of the test, the test animal was anesthetized, and blood was collected from the heart and centrifuged (1,000×g, 15 minutes) to obtain blood serum. […] After adding the stop solution (50 μl), the absorbance at 405 nm was measured by using Micro Spectrophotometer (Molecular Device, Sunnyvale, Calif., USA).

Assay [6] has as its system SK-N-SH cells. Briefly: Activity of protecting nerve cells against corticosterone toxicity, MTS assay (cell proliferation). It counts as cell-based, human. The settings on record: 0.25 mM corticosterone for 1 hour, versus normal group. As for the experimental part:
SK-N-SH cells as human neuroblastoma cell line were obtained from Korean Cell Line Bank, cultured in DMEM (Dulbecco's modified Eagle's medium) medium containing 10% bovine serum and 1% penicillin/streptomycin (37° C., 5% CO2 incubator), and used. Once a cell monolayer is formed, the cells were treated with TrypLE 1× solution to release the cells followed by subculture.
Furthermore, based on the toxicity of corticosterone, the activity of protecting nerve cells in human blastoma was examined. Specifically, on a Corning BioCoat collagen I 96-well plate, SK-N-SH cells were sewn at 3×10^4/well. Thereafter, the cells were pre-treated for 24 hours with an extract of Hibiscus syriacus flower or Hibiscus syriacus root at a concentration of 10, 50, 100, or 200 μg/ml followed by a treatment with 0.25 mM corticosterone for 1 hour to induce oxidative stress. Then, MTS assay was carried out and, by measuring the absorbance using ELISA (enzyme-linked immunosorbent assay) plate reader, the cell proliferation was determined.
As a positive control, a treatment with 10 μM fluoxetine (Sigma, St. Louis, Mo., USA) was carried out instead of the treatment with an extract of Hibiscus syriacus flower or Hibiscus syriacus root.
On the technique in general: Tetrazolium assays rely on reduction of a dye to a coloured formazan, in cell work by metabolically active cells.

Turning to `CNCCC(Oc1ccc(C(F)(F)F)cc1)c1ccccc1` (stereo not drawn) [Fluoxetine, fluoxetine], the “sucrose intake amount compared to stress control group (Vehicle)” value in assay [1] was “increased in significant sense”. Besides, in assay [2], the “immobile time in forced swimming test compared to control group (Vehicle)” value is “decreased in significant sense”. Besides, the “immobile time in tail suspension test compared to control group (Vehicle)” value in assay [3] is “decreased”. Also, the “cortisol production in blood compared to control group (Vehicle)” value in assay [4] is “decreased in significant sense”. Further, the “serotonin production in blood compared to control group (Vehicle)” value in assay [5] was “increased in significant sense”.

As to `C[C@]12C[C@H](O)[C@H]3[C@@H](CCC4=CC(=O)CC[C@@]43C)[C@@H]1CC[C@@H]2C(=O)CO` [corticosterone], in assay [6], the “cells diminished by treatment with corticosterone” value is reported as about 50%.
